Among the data in patent US6743940B2, “4-aminobut-2-ynecarboxylic acid derivatives” (Ciba Specialty Chemicals Corporation, priority 2000, dated 2004) are MIC values, retold here.

Where two headings read alike, the source gives them in different places. Where only a bound is given, the exact number is not on record here.

Experiment in all cases: Minimum Inhibitory Concentration (MIC) in the agar incorporation test
Common to all, as to assay type: cell-based

Experiment [1] concerns Aspergillus niger ATCC 6275. Conditions: ATCC6275, 72 h, 3 days at 28° C. As for the experimental part:
(§1) Determination of the Minimum Inhibitory Concentration (MIC) in the Agar Incorporation Test (MIC Test) [table] Test Principle 0.3 ml of each dilution step is mixed with 15 ml of still liquid nutrient medium. After the nutrient medium has solidified, 10 μl of each of the following organism dilutions of the test strains in 0.85% NaCl solution is dotted onto the agar medium: [table] The plates are incubated for 24 hours at 37° C. (A. niger 3 days at 28° C.) and then the highest dilution (lowest concentration) of the test substance at which no more growth is observed (corresponds to the MIC) is determined.

In experiment [2] the test system is Candida albicans ATCC 10231. Particulars: ATCC10231, Table 1, casein-soybean flour-peptone agar, 24 hours at 37° C., dilution series 1000 ppm to 10 ppm. The protocol: as §1
Experiment [3] deals with Staphylococcus aureus ATCC 9144. Particulars: 24 hours at 37° C. As for the experimental part: as §1
The subject of experiment [4] is Pseudomonas aeruginosa CIP A-22. Particulars: CIPA22, Table 1, casein-soybean flour-peptone agar, 24 hours at 37° C., dilution series 1000 ppm to 10 ppm. As for the experimental part:
as §1

In experiment [5] the test system is Escherichia coli NCTC 8196. Particulars: NCTC8196, Table 1, casein-soybean flour-peptone agar, 24 hours at 37° C., dilution series 1000 ppm to 10 ppm. As for the experimental part: as §1
Setting [6] is: Table 2, MIC test, read-out: Further microbiological test results, Aspergillus niger ATCC 6275.
The mark [7] stands for this setting: ATCC9144, Table 2, MIC test, read-out: Further microbiological test results, Staphylococcus aureus ATCC 9144.

On to `COC(=O)CC#CCN(C)c1ccccc1` [Compound of formula (101), 4-(N-methyl-phenylamino)-but-2-yne-carboxylic Acid Methyl Ester], for which the MIC was 62.5 µg/mL in experiment [1] (Table 1, Sabouraud 4% glucose-agar, dilution series 1000 ppm to 10 ppm, read-out: Minimum Inhibitory Concentration (MIC), Aspergillus niger ATCC 6275); 62.5 µg/mL in experiment [2]; 62.5 µg/mL in experiment [3] (ATCC9144, Table 1, casein-soybean flour-peptone agar, dilution series 1000 ppm to 10 ppm, read-out: Minimum Inhibitory Concentration (MIC), Staphylococcus aureus ATCC 9144); over 1000 µg/mL in experiment [4]; 125 µg/mL in experiment [5].
On to `CCCN(CC#CC(=O)OC)c1cccc(C)c1` [Compound of formula (106)], for which the MIC in experiment [1] (setting [6]) and in experiment [3] (setting [7]) was 125 µg/mL each time.
As for `CCCCN(CC#CC(=O)OC)c1ccccc1` [Compound of formula (107)], the MIC in experiment [1] (setting [6]) and in experiment [3] (setting [7]) was 63 µg/mL throughout.
`CCCN(CC#CC(=O)OC)c1cccc(OC)c1` [Compound of formula (108)]: the MIC in experiment [1] (setting [6]) amounted to 125 µg/mL; in experiment [3] (setting [7]) it was 63 µg/mL.
As for `CCCN(CC#CC(=O)OCC)c1cccc(OC)c1` [Compound of formula (109)], in experiment [3] (setting [7]), the MIC was found to be 1000 µg/mL.
Consider `CCCCCN(CC#CC(=O)OC)c1ccccc1` [Compound of formula (110)], for which the MIC in experiment [1] (setting [6]) is 125 µg/mL; in experiment [3] (setting [7]), 63 µg/mL.
For `CCCN(CC#CC(=O)OC)c1ccc(OC)cc1` [Compound of formula (111)], the MIC in experiment [3] (setting [7]) turned out to be 63 µg/mL.
On the same count and under the same terms, next, `CCCCCN(CC#CC(=O)OC)c1cccc(OC)c1` [Compound of formula (112)]: 63 µg/mL; `CCCCN(CC#CC(=O)OC)c1cccc(C)c1` [Compound of formula (113)]: 125 µg/mL.
Consider `CCN(CC#CC(=O)OC)c1ccc(OC)cc1` [Compound of formula (114)], for which the MIC in experiment [1] (setting [6]) and in experiment [3] (setting [7]) was 60 µg/mL throughout.
With `CCN(CC#CC(=O)OC)c1cccc(C)c1` [Compound of formula (115)], in experiment [1] (setting [6]), the MIC came to 8 µg/mL.
Turning to `CCOC(=O)C#CCNc1ccccc1` [Compound of formula (116)], the MIC in experiment [1] (setting [6]) and in experiment [3] (setting [7]) was 125 µg/mL each time.
For the molecule `CCOC(=O)C#CCNc1ccc(OC)cc1` [Compound of formula (117)], the MIC in experiment [1] (setting [6]) and in experiment [3] (setting [7]) was 500 µg/mL each time.
As for `COC(=O)C#CCNc1ccc(C)cc1` [Compound of formula (118)], the MIC in experiment [1] (setting [6]) and in experiment [3] (setting [7]) was 125 µg/mL in each case.
